Values joined by “and” are separate entries in the source; they are usually repeats but may differ in a detail not shown here. Equal entries are not always repeated. Where two headings read alike, the source gives them in different places.
Columns and labels:
[1] = test system: cytokine interleukin 6 (IL-6); test: IL-6 quantification in HT22 mouse hippocampal neuronal cells; assay type: cell-based; details: LPS stressed, HBr salt, 24 hours
Source text: (§1) For neuroplasticity, brain-derived neurotrophic factor (BDNF; FIGS. 3B1 and 3B2) and for inflammation, cytokine interleukin 6 (IL-6; FIGS. 3A1 and 3A2) and TNFα (FIGS. 3C1 and 3C2), were quantified with and without proinflammatory treatment of lipopolysaccharide (LPS). LPS-induced inflammation is a model for neuroinflammation similar to what is seen in patients with neurodegenerative disorders. […] IL-6 is elevated in patients with frontotemporal dementias and other neurodegenerative disorders and especially in patients with disinhibition.

[2] = test system: brain-derived neurotrophic factor (BDNF); test: BDNF quantification in HT22 mouse hippocampal neuronal cells; assay type: cell-based; details: HT22 control cells (no LPS); HBr salt; 24 hours
Source text: as §1

TNFα = TNFα quantification in HT22 mouse hippocampal neuronal cells; assay type: cell-based; details: LPS stressed, HBr salt, 24 hours
Source text: as §1

[3] = test system: metabotropic glutamate receptor 2 (mGlu2); test: Brain tissue mGlu2 protein expression in prefrontal cortex after in vivo treatment; design: species or system mouse; details: male C57BL/6J mice, 25 mg/kg daily 18 days
Source text: The expression of metabotropic glutamate receptor 2 (mGlu2) in the prefrontal cortex was quantified following in vivo mouse studies. Regulation of the metabotropic glutamate receptor 2 (mGlu2) levels in alcohol seeking rats can reduce relapse behavior.

[4] = assay type: in vivo; details: rat
Protocol: (§2) The rat PK (FIG. 6) was assessed with an oral dose of 10 mg/kg and intravenously at 1 mg/kg. […] The PK and brain concentrations were assessed in cohorts of 3 […] for each dosing group and between the plasma vs brain concentrations. For 10 mg/kg oral dosing, the PK parameters are outlined in Table 16 below.
1 mg/kg IV dosing, the PK parameters are outlined in Table 17.

[5] = assay type: in vivo; details: rat, IV 1 mg/kg of 2-Br-4-AcO-DMT * HBr, 4 h, individual rat
Protocol: as §2
The brain vs. plasma concentrations from oral and IV doses of 2-Br-4-ACO-DMT*HBr are listed in Table 18 via detection of active 2-Br-4-OH-DMT.

mice = test: Reduction in alcohol consumption; assay type: in vivo, mouse; details: addicted mice
Source text: In order to test for the ability to curb alcohol consumption, mice were given 8-20%/alcohol ab libitum for two weeks. The results of alcohol consumption were monitored over two weeks after daily dosing of test compound in relation to positive control (4-AcO-DMT). Further studies extended the experiment to 60 days for three different doses while only dosing the mice every 3 days.

CC(=O)Oc1cccc2[nH]c(Br)c(CCN(C)C)c12 [2-Br-4-AcO-DMT, 2-bromo-3-(2-(dimethylamino)ethyl)-1H-indol-4-yl acetate]
IL-6 level [1]: reduces IL-6
BDNF level [2]: increases neuroplasticity marker BDNF in the control cells
TNFα level (TNFα): reduces IL-6 and TNFα in the stressed LPS cells
mGluR2 expression reduction compared with psilacetin ([3]; n=5-6, relative to actin, normalized to vehicle): exceeding the effect of psilacetin
mGluR2 expression, unstressed mice ([3]; no-stress, prefrontal cortex): reduced expression of mGluR2
mGluR2 expression, stressed mice ([3]; tube restraint, prefrontal cortex): reduced expression of mGluR2

CN(C)CCc1c(Br)[nH]c2cccc(O)c12 [2-Br-4-OH-DMT, 2-bromo-3-(2-(dimethylamino)ethyl)-1H-indol-4-ol]
AUC Extr ([4]; 1 mg/kg IV of 2-Br-4-AcO-DMT * HBr, individual rat, 1 mg/kg): 7.66% and 4.06% and 4.54%
AUC Extr ([4]; 1 mg/kg IV of 2-Br-4-AcO-DMT * HBr, mean of 3 rats): 5.42%
AUC Extr ([4]; 10 mg/kg PO of 2-Br-4-AcO-DMT * HBr, mean of 3 rats): 4.50%
Plasma Concentration [5]: BLOQ

CC(=O)Oc1cccc2[nH]c(Br)c(CCN(C)C)c12 [drawing 37]
Alcohol Consumption, effective dose range (mice): 5 to 40 mg/kg

From patent US20260306453A1, “FORMULATIONS CONTAINING TRYPTAMINE DERIVATIVES AND USES THEREOF” (priority 2023, published 2026)
